Data published in ChEMBL document CHEMBL3885861, “Open TG-GATES”.

Species on record: Rattus norvegicus
Test: Open TG-GATES - Regimen: Single
Format: toxicity, organism-based, Sprague-Dawley
Parameters: regimen Single, gender Male, age 6 weeks
Conditions: in vivo, po, route gavage; for APTT / Bas / Eos / Fbg / Hb / Ht / Lym / MCH / MCHC / MCV / Mono / Neu / PT / Plat / RBC / Ret / WBC: tissue Blood; for KIDNEY_L / KIDNEY_R / KIDNEY_TOTAL: tissue Kidney; for LIVER: tissue Liver; for A/G / ALP / ALT / AST / BUN / CRE / Ca / Cl / DBIL / GLC / IP / K / LDH / Na / PL / RALB / TBIL / TC / TG / TP / gamma-GTP: tissue Plasma
[1] = 0 mg/kg, 3 h, dose level Control
[2] = 0 mg/kg, 6 h, dose level Control
[3] = 0 mg/kg, 9 h, dose level Control
[4] = 0 mg/kg, 24 h, dose level Control

## Brc1ccccc1 [BROMOBENZENE]
[1]
  TERMINAL_BW: 190.9 g
  APTT: 15.7 s
  Bas: 0.2%
  Eos: 0.8%
  Fbg: 247.4 mg/dL
  Hb: 13.1 g/dL
  Ht: 39.4%
  Lym: 72.8%
  MCH: 21.2 pg
  MCHC: 33.2%
  MCV: 63.8 fL
  Mono: 4.2%
  Neu: 21.6%
  PT: 12.4 s
  Plat: 117.7 x10_4/uL
  RBC: 618.4 x10_4/ul
  Ret: 9.8%
  WBC: 108.2 x10_2/uL
  KIDNEY_L: 0.9 g
  KIDNEY_R: 0.8 g
  KIDNEY_TOTAL: 1.7 g
  LIVER: 8.1 g
  A/G: 0.9
  ALP: 1539.4 IU/L
  ALT: 46.2 IU/L
  AST: 83.2 IU/L
  BUN: 10.2 mg/dL
  CRE: 0.2 mg/dL
  Ca: 11.2 mg/dL
  Cl: 106.2 meq/L
  DBIL: 0.022 mg/dL
  GLC: 186.4 mg/dL
  IP: 9.4 mg/dL
  K: 3.8 meq/L
  LDH: 84.2 IU/L
  Na: 141.6 meq/L
  PL: 159.2 mg/dL
  RALB: 2.6 g/dL
  TBIL: 0.058 mg/dL
  TC: 83.6 mg/dL
  TG: 88.4 mg/dL
  TP: 5.5 g/dL
  gamma-GTP: 2 IU/L
[2]
  TERMINAL_BW: 191.8 g
  APTT: 15.7 s
  Bas: 0%
  Eos: 1%
  Fbg: 276.2 mg/dL
  Hb: 13 g/dL
  Ht: 39.1%
  Lym: 75.8%
  MCH: 21.4 pg
  MCHC: 33.3%
  MCV: 64.3 fL
  Mono: 3.8%
  Neu: 19.2%
  PT: 12.4 s
  Plat: 109.8 x10_4/uL
  RBC: 608.2 x10_4/ul
  Ret: 9.3%
  WBC: 92.3 x10_2/uL
  KIDNEY_L: 0.8 g
  KIDNEY_R: 0.8 g
  KIDNEY_TOTAL: 1.6 g
  LIVER: 7.6 g
  A/G: 0.9
  ALP: 1707 IU/L
  ALT: 40.8 IU/L
  AST: 76.6 IU/L
  BUN: 9.2 mg/dL
  CRE: 0.2 mg/dL
  Ca: 11 mg/dL
  Cl: 107.4 meq/L
  DBIL: 0.01 mg/dL
  GLC: 184.2 mg/dL
  IP: 10 mg/dL
  K: 4 meq/L
  LDH: 69.6 IU/L
  Na: 141.4 meq/L
  PL: 149.2 mg/dL
  RALB: 2.6 g/dL
  TBIL: 0.054 mg/dL
  TC: 83.2 mg/dL
  TG: 37.8 mg/dL
  TP: 5.5 g/dL
  gamma-GTP: 1.2 IU/L
[3]
  TERMINAL_BW: 191.1 g
  APTT: 15.4 s
  Bas: 0%
  Eos: 1%
  Fbg: 258.4 mg/dL
  Hb: 12.9 g/dL
  Ht: 38.8%
  Lym: 74.8%
  MCH: 21.5 pg
  MCHC: 33.4%
  MCV: 64.4 fL
  Mono: 3%
  Neu: 21.2%
  PT: 12.3 s
  Plat: 120.5 x10_4/uL
  RBC: 603 x10_4/ul
  Ret: 9.6%
  WBC: 75.5 x10_2/uL
  KIDNEY_L: 0.8 g
  KIDNEY_R: 0.8 g
  KIDNEY_TOTAL: 1.6 g
  LIVER: 7.4 g
  A/G: 0.9
  ALP: 1515.4 IU/L
  ALT: 36.2 IU/L
  AST: 70.2 IU/L
  BUN: 11.4 mg/dL
  CRE: 0.2 mg/dL
  Ca: 10.8 mg/dL
  Cl: 105.8 meq/L
  DBIL: 0.006 mg/dL
  GLC: 193.4 mg/dL
  IP: 11.8 mg/dL
  K: 3.6 meq/L
  LDH: 81.2 IU/L
  Na: 143.2 meq/L
  PL: 146.8 mg/dL
  RALB: 2.6 g/dL
  TBIL: 0.052 mg/dL
  TC: 84.2 mg/dL
  TG: 39.6 mg/dL
  TP: 5.6 g/dL
  gamma-GTP: 1.4 IU/L
[4]
  TERMINAL_BW: 196.6 g
  APTT: 15.4 s
  Bas: 0%
  Eos: 1%
  Fbg: 270.2 mg/dL
  Hb: 12.6 g/dL
  Ht: 37.4%
  Lym: 74.6%
  MCH: 21.1 pg
  MCHC: 33.8%
  MCV: 62.6 fL
  Mono: 3.4%
  Neu: 19.8%
  PT: 12.3 s
  Plat: 114.7 x10_4/uL
  RBC: 598.2 x10_4/ul
  Ret: 8.1%
  WBC: 81.7 x10_2/uL
  KIDNEY_L: 0.8 g
  KIDNEY_R: 0.8 g
  KIDNEY_TOTAL: 1.7 g
  LIVER: 8.7 g
  A/G: 0.9
  ALP: 1600.6 IU/L
  ALT: 50.8 IU/L
  AST: 79.6 IU/L
  BUN: 14.2 mg/dL
  CRE: 0.2 mg/dL
  Ca: 10.5 mg/dL
  Cl: 105.2 meq/L
  DBIL: 0.004 mg/dL
  GLC: 187.4 mg/dL
  IP: 8 mg/dL
  K: 4.2 meq/L
  LDH: 114.4 IU/L
  Na: 141.4 meq/L
  PL: 136.8 mg/dL
  RALB: 2.6 g/dL
  TBIL: 0.04 mg/dL
  TC: 76.8 mg/dL
  TG: 55.4 mg/dL
  TP: 5.5 g/dL
  gamma-GTP: 1.4 IU/L
30 mg/kg, 3 h, dose level Low
  TERMINAL_BW: 190.8 g
  APTT: 14.7 s
  Bas: 0%
  Eos: 0.8%
  Fbg: 276.2 mg/dL
  Hb: 12.9 g/dL
  Ht: 38.6%
  Lym: 77%
  MCH: 21.7 pg
  MCHC: 33.6%
  MCV: 64.5 fL
  Mono: 3%
  Neu: 18.4%
  PT: 12.3 s
  Plat: 116 x10_4/uL
  RBC: 597.6 x10_4/ul
  Ret: 9.5%
  WBC: 95.3 x10_2/uL
  KIDNEY_L: 0.8 g
  KIDNEY_R: 0.8 g
  KIDNEY_TOTAL: 1.6 g
  LIVER: 7.9 g
  A/G: 0.9
  ALP: 1807.2 IU/L
  ALT: 47.6 IU/L
  AST: 80 IU/L
  BUN: 11 mg/dL
  CRE: 0.2 mg/dL
  Ca: 11.4 mg/dL
  Cl: 106.2 meq/L
  DBIL: 0.024 mg/dL
  GLC: 182 mg/dL
  IP: 9.4 mg/dL
  K: 4 meq/L
  LDH: 75.6 IU/L
  Na: 141.6 meq/L
  PL: 174.2 mg/dL
  RALB: 2.6 g/dL
  TBIL: 0.056 mg/dL
  TC: 93.6 mg/dL
  TG: 80.6 mg/dL
  TP: 5.7 g/dL
  gamma-GTP: 1.2 IU/L
30 mg/kg, 6 h, dose level Low
  TERMINAL_BW: 192.5 g
  APTT: 15.9 s
  Bas: 0%
  Eos: 1%
  Fbg: 250 mg/dL
  Hb: 12.8 g/dL
  Ht: 38.3%
  Lym: 78.6%
  MCH: 21.7 pg
  MCHC: 33.3%
  MCV: 65 fL
  Mono: 3.4%
  Neu: 16.6%
  PT: 12.6 s
  Plat: 110.6 x10_4/uL
  RBC: 590.4 x10_4/ul
  Ret: 9.4%
  WBC: 105.9 x10_2/uL
  KIDNEY_L: 0.8 g
  KIDNEY_R: 0.8 g
  KIDNEY_TOTAL: 1.6 g
  LIVER: 7.4 g
  A/G: 0.9
  ALP: 1769.6 IU/L
  ALT: 41 IU/L
  AST: 75.8 IU/L
  BUN: 10.6 mg/dL
  CRE: 0.2 mg/dL
  Ca: 11.1 mg/dL
  Cl: 107.2 meq/L
  DBIL: 0.018 mg/dL
  GLC: 180.8 mg/dL
  IP: 10.3 mg/dL
  K: 3.9 meq/L
  LDH: 71.2 IU/L
  Na: 141.8 meq/L
  PL: 139.2 mg/dL
  RALB: 2.5 g/dL
  TBIL: 0.058 mg/dL
  TC: 74.6 mg/dL
  TG: 53 mg/dL
  TP: 5.3 g/dL
  gamma-GTP: 1.4 IU/L
30 mg/kg, 9 h, dose level Low
  TERMINAL_BW: 193.2 g
  APTT: 15.6 s
  Bas: 0%
  Eos: 1%
  Fbg: 262.2 mg/dL
  Hb: 13.3 g/dL
  Ht: 39.4%
  Lym: 70.8%
  MCH: 21.5 pg
  MCHC: 33.7%
  MCV: 64 fL
  Mono: 3.2%
  Neu: 24.6%
  PT: 12.7 s
  Plat: 118.3 x10_4/uL
  RBC: 617.2 x10_4/ul
  Ret: 9%
  WBC: 92.1 x10_2/uL
  KIDNEY_L: 0.8 g
  KIDNEY_R: 0.8 g
  KIDNEY_TOTAL: 1.6 g
  LIVER: 7 g
  A/G: 0.9
  ALP: 1907.6 IU/L
  ALT: 41.2 IU/L
  AST: 73.4 IU/L
  BUN: 10.2 mg/dL
  CRE: 0.1 mg/dL
  Ca: 10.7 mg/dL
  Cl: 106.2 meq/L
  DBIL: 0.016 mg/dL
  GLC: 189.6 mg/dL
  IP: 11.5 mg/dL
  K: 3.9 meq/L
  LDH: 72.8 IU/L
  Na: 142.2 meq/L
  PL: 136.8 mg/dL
  RALB: 2.5 g/dL
  TBIL: 0.058 mg/dL
  TC: 79.6 mg/dL
  TG: 41.6 mg/dL
  TP: 5.3 g/dL
  gamma-GTP: 1.6 IU/L
30 mg/kg, 24 h, dose level Low
  TERMINAL_BW: 199 g
  APTT: 15.2 s
  Bas: 0%
  Eos: 1.2%
  Fbg: 248.6 mg/dL
  Hb: 12.7 g/dL
  Ht: 37.2%
  Lym: 71.6%
  MCH: 21.4 pg
  MCHC: 34%
  MCV: 63.1 fL
  Mono: 3.4%
  Neu: 23.6%
  PT: 12.3 s
  Plat: 117.9 x10_4/uL
  RBC: 589.2 x10_4/ul
  Ret: 8.2%
  WBC: 96.4 x10_2/uL
  KIDNEY_L: 0.8 g
  KIDNEY_R: 0.8 g
  KIDNEY_TOTAL: 1.7 g
  LIVER: 9.2 g
  A/G: 0.9
  ALP: 1811.4 IU/L
  ALT: 52.8 IU/L
  AST: 78.8 IU/L
  BUN: 15.4 mg/dL
  CRE: 0.2 mg/dL
  Ca: 10.4 mg/dL
  Cl: 106.2 meq/L
  DBIL: 0.012 mg/dL
  GLC: 196.8 mg/dL
  IP: 8.1 mg/dL
  K: 4.2 meq/L
  LDH: 112.6 IU/L
  Na: 141.6 meq/L
  PL: 137.4 mg/dL
  RALB: 2.5 g/dL
  TBIL: 0.05 mg/dL
  TC: 71.8 mg/dL
  TG: 79.4 mg/dL
  TP: 5.4 g/dL
  gamma-GTP: 0.8 IU/L
